Reference: publication PMC9867837 (Cancer letters, 2022)

What was measured:
pY705Stat3 = target: T1, pY705Stat3 (Homo sapiens, UniProt P40763); assay: Western blotting for pY705Stat3 in treated breast cancer cells; type: cell-based; details: for Effect on constitutive Stat3 Tyr phosphorylation (pYStat3) in cells: MDA-MB-468 and MDA-MB-231, 0–5 μM, 1 or 2 h
T1 construct: endogenous in cells
Procedure: (§1) These studies were performed as previously described. Details are presented in Supplementary Information, “Methods”.
Nuclear extracts and whole-cell lysates were prepared, and samples of equal total protein were subjected to Stat3 DNA-binding assay/EMSA analysis using the hSIE probe, or to SDS/PAGE and Western blotting analysis for pY705Stat3, Stat3, or GAPDH [11, 12]. […] Depending on the concentration (1, 3, or 5 μM), the inhibitory effects of the azetidine compounds were observed relatively early, at 30–60 min, on both Stat3 DNA-binding activity (Fig. 4C) and Tyr phosphorylation (Fig. 4D, pY705Stat3).
During confluence of cultured cells, the cell-to-cell adhesion and cadherin engagement trigger increased Tyr705Stat3 phosphorylation in a variety of cell lines. To investigate the impact of cell-to-cell adhesion and cadherin engagement, parallel studies were conducted in which cells in culture were untreated or treated with 1 or 2 μM H182 for 0.5–48 h, and whole-cell lysates prepared and immunoprobed for pTyr705Stat3. […] After 48-h incubation, the cell confluency of the DMSO-treated samples reached to around 60% for MDA-MB-468 cells and 80% for MDA-MB-231 cells. […] In the untreated cells, Stat3 (red punctate) staining was predominantly localized in the nucleus of the tumor cells, with weak presence in the cytoplasm (Fig. 4F, 0, Stat3, red merged with blue DAPI nuclear staining). […] Total Stat3 protein levels in all of these studies were unchanged, and GAPDH, tubulin or β-actin levels show equal protein loading. The percent changes induced by H182 treatment on Stat3 DNA-binding activity and phosphorylation in the treated cells are shown.
(§2) These studies were performed as previously described [1 -3] . Briefly, snap-frozen tumor tissues or cultured cells treated or not were harvested and whole-cell or tissue lysates were prepared in radioimmunoprecipitation assay (RIPA) buffer. Samples of equal total protein were subjected to SDS - PAGE and immunoblotting analysis. Primary antibodies used were anti- Stat3, pY705-Stat3, pS727Stat3, […]
(§3) Akt, pT202/Y204Erk1/2 (p44/42), Erk1/2, PARP , caspase 3, c-Myc, survivin, VEGF, β-actin, α/β-tubulin, and GAPDH. For the studies of the effects of cell density and confluence on pY705Stat3, cells were seeded […] in culture dishes. The next day, cells were untreated (DMSO control, […]
0.1%) or treated at the same time with 1 or 2 µM H182, allowed to incubate for the indicated time and then harvested for whole-cell lysate preparation and SDS -PAGE / immunoblotting analy sis. After 48-h incubation, the cell confluency of the DMSO-treated samples reached to around 60% for MDA-MB -468 cells and 80% for MDA- MB-231 cells. […]

[1] = tested on: pS727Stat3, pYStat1, pY416Src, pY1068EGFR, pShc, pErk1/2MAPK, pS473Akt, and pJAK2; assay: Western blotting for other signaling proteins in TNBC cells; type: cell-based, human; details: MDA-MB-231 and MDA-MB-468, 0.5–3 μM H182 for 2 h
Procedure: as §1
We sought to assess any non-specific effects of the azetidine compounds. […] Samples of equal total protein were subjected to SDS-PAGE and Western blotting analysis. […] The total protein levels were unchanged, and the tubulin, β-actin, and GAPDH levels show equal protein loading.
as §2, §3
concentration of H182 for 6 h and then treated with 0- 100 nM docetaxel or 0-20 µM cisplatin for a total of 72 h. Viable cell numbers were assessed by a CyQuant cell proliferation kit according to the manufacturer’s instructions (Thermo/Life Technologies Corp, Carlsbad, CA). […]

MDA-MB-231 cells = assay: Wound healing (scratch) assay for migration; type: cell-based, human; details: one-time treatment, 22 h
Procedure: Studies were performed as previously reported. Details are presented in Supplementary Information, “Methods”. […]
software and Prism GraphPad software (San Diego, CA), using the one-site model. Control experiments were carried out by titration H182 into buffer, buffer into Stat3, and buffer into buffer. The three controls were used as a composite for the ITC experiment to subtract the heat of dilution and background noise from […]
1.2.11. Wound healing assay for migration
Studies were performed as previously reported [1 -3]. Briefly, cells were cultured in 6-well plates, and the monolayer of cells was scratched with a p10 pipet tip. Subsequently, fresh medium containing inhibitors or DMSO (control) was added, and then immediately, cells were imaged with a Canon Powershot A640 digital camera under a phase contrast with the Zeiss Axiovert 200 inverted microscope at 10X magnification and noted as the zero time-point. Following culture for 22 h to allow cells to migrate into the denuded area, the culture was then imaged again at the same field that was marked on the plate.
1.2.12. Annexin V binding/apoptosis and flow cytometric analysis
For apoptosis analysis, annexin V/propidium iodide (PI) staining was performed. […] The annexin V- and/or PI-positive cells were analyzed by FACScan flow cytometer (BD Biosciences) and data was analyzed using FlowJo software. […]

T1 sequence (P40763 whole entry): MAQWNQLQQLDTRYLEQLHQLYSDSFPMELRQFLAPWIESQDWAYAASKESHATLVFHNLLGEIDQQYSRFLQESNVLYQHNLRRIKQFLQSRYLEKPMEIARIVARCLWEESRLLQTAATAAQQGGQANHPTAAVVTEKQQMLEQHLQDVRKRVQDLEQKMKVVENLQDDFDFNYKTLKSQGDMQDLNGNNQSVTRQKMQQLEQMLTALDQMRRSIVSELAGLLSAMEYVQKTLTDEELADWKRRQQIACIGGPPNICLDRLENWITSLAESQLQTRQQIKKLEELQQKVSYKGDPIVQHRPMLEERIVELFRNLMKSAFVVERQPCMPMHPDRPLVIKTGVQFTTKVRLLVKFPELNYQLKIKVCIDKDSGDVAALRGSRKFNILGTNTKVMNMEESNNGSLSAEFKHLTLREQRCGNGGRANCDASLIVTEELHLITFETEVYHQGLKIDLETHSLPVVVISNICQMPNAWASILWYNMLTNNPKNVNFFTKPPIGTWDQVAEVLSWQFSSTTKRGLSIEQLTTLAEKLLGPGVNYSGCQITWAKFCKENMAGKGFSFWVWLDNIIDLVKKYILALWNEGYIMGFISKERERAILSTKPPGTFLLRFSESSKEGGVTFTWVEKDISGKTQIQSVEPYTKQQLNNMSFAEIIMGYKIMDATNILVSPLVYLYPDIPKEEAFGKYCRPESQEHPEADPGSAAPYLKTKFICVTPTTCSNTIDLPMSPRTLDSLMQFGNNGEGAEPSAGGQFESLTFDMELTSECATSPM

Row | SMILES | Effect on constitutive Stat3 Tyr phosphorylation (pYStat3) in cells (pY705Stat3) | Effect on constitutive or EGF-induced pS727Stat3, pYStat1, pY416Src, pY1068EGFR, pShc, pErk1/2MAPK, pS473Akt, and pJAK2 [1] | Effect on cell migration into the denuded area (MDA-MB-231 cells) | Duration of inhibition of Stat3 activation (pY705Stat3) (pY705Stat3; 3 μM H182) | Effect on EGF-induced pY705Stat3 (pY705Stat3; MDA-MB-468 cells, 1–3 μM H182)
1 | O=C([C@H]1CCN1S(=O)(=O)c1c(F)c(F)c(F)c(F)c1F)N(Cc1ccc(C2CCCCC2)cn1)c1ccc2c(=O)[nH]cnc2c1 [Compound H172] | dose-dependent inhibition |  |  |  | 
2 | O=C([C@H]1CCN1S(=O)(=O)c1c(F)c(F)c(F)c(F)c1F)N(Cc1ccc(C2CCCCC2)cn1)c1ccc2c(=O)[nH]ncc2c1 [Compound H182] | dose-dependent inhibition | no inhibitory effect | inhibited the cell migration | sustained inhibition of Stat3 activation for up to 48 h | inhibited EGF-induced pY705Stat3 in MDA-MB-468 cells in a dose-dependent manner
